In patent publication US7544703B2, “Cyclic compound having 4-pyridylalkylthio group having substituted or unsubstituted amino group introduced therein” (Santen Pharmaceutical Co., Ltd., priority 2004, dated 2009) one finds inhibition data, which are given here for 28 compounds.

Molecules are shown by their SMILES. Where a name gives a salt, the structure may show the parent alone.

In this assay the test system is HUVEC (normal human umbilical vein endothelial cells). Kind of assay: VEGF-induced HUVEC proliferation: cell proliferation inhibitory action test.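 Also: each well holds 100 µL cell suspension before compound addition.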 The format is cell-based. The following applies: 72 h, 5 μL of 20 μg/mL test compound solution per well, WST-8 absorbance at 450 nm three days after VEGF addition, read-out: Cell proliferation inhibition rate (%). The protocol:
A cell proliferation inhibitory action test of the compounds of the present invention was performed using a VEGF-induced HUVEC proliferation evaluation system (HUVEC stands for normal human umbilical vein endothelial cells), which is one of the widely-used methods of evaluating in vitro angiogenesis inhibitory effects of drugs. As one of the widely-used methods of evaluating angiogenesis inhibitory effects of drugs, a cell proliferation inhibitory action test using a VEGF-induced HUVEC proliferation reaction evaluation system has been reported in Cancer Res., 59, 99-106 (1999). According to the method described in the above-mentioned document, a cell proliferation inhibitory action test of the compounds of the present invention was performed, the cell proliferation inhibition rate was calculated, and the angiogenesis inhibitory effect of each of the compounds of the present invention was evaluated using the obtained rate as an index. Each test compound was dissolved in dimethyl sulfoxide (hereinafter abbreviated as DMSO), and the obtained solution was diluted with a commercially available phosphoric acid buffer solution (hereinafter abbreviated as PBS), whereby a 20 μg/mL test compound solution was prepared. HUVEC was suspended in a 0.5% fetal bovine serum (hereinafter abbreviated as FBS)-containing F12K medium, whereby a 2×10^4 cells/mL HUVEC suspension was prepared. VEGF was dissolved in 0.1% bovine serum albumin-containing PBS, and the obtained solution was diluted with the 0.5% FBS-containing F12K medium, whereby a 400 ng/mL VEGF solution was prepared. • 1) The HUVEC suspension was inoculated in an amount of 100 μL into each well of a 96-well plate coated with type I collagen (2×10^3 cells per well). • 2) One day after the inoculation, the test compound solution was added in an amount of 5 μL per well. • 3) One hour after the addition of the test compound solution, the VEGF solution was added in an amount of 5 μL per well. • 4) Three days after the addition of the VEGF solution, WST-8 assay kit (Dojin Chemical Co., Ltd.) was added in an amount of 10 μL per well. • 5) After 3 hours, the above-mentioned plate was attached to an absorptiometer (Multilabel Counter ARVO), and an absorbance at 450 nm of each well suspension (hereinafter referred to as test compound suspension) was measured. • 6) A test was carried out in the same manner as in the above 1) to 5) except that 1.0% DMSO was used instead of the test compound solution. The result was used as a control. Incubation was carried out under conditions of 37° C., 5% carbon dioxide and […] in an incubator throughout the above-mentioned test steps. The cell proliferation inhibition rate (%), which was used as an index of an angiogenesis inhibitory effect, was calculated according to the following calculation equation. Cell proliferation inhibition rate (%)=100−{(Absorbance of test compound suspension−A)/(absorbance of control−A)}×100 (Calculation Equation) A: Absorbance of only cell suspension (cell+medium) (Test Results and Discussion)
On the technique in general: Formazan colour is commonly taken as a measure of viable cells.
Take `CC(=O)Nc1cc(CSc2ncccc2C(=O)Nc2ccc3cn[nH]c3c2)ccn1` [Compound 4-22, 2-(2-Acetylaminopyridin-4-ylmethylthio)-N-(1H-indazol-6-yl)pyridine-3-carboxamide]: the inhibition at 20 µg/mL (stock) stood at 97%.

As for `Cc1cc(C)cc(NC(=O)c2cccnc2SCc2ccnc(Nc3ncc(C#N)s3)c2)c1` [Compound 2-24, 2-[2-(5-Cyanothiazol-2-ylamino)pyridin-4-ylmethylthio]-N-(3,5-dimethylphenyl)pyridine-3-carboxamide], the inhibition at 20 µg/mL (stock) is 88%.

For `Cc1cc(C)cc(NC(=O)c2cccnc2SCc2ccnc(N(C)C(=O)OC(C)(C)C)c2)c1` [Compound 2-7, 2-[2-(N-tert-Butoxycarbonyl-N-methylamino)pyridin-4-ylmethylthio]-N-(3,5-dimethylphenyl)pyridine-3-carboxamide], the inhibition at 20 µg/mL (stock) stood at 52%.

Consider `CC(C)c1cccc(NC(=O)c2cccnc2SCc2ccnc(NC(=O)OC(C)(C)C)c2)c1` [Compound 2-2, 2-(2-tert-Butoxycarbonylaminopyridin-4-ylmethylthio)-N-(3-isopropylphenyl)pyridine-3-carboxamide], for which the inhibition at 20 µg/mL (stock) was found to be 100%.

`O=C(Nc1ccc2c(c1)CCC2)c1cccnc1SCc1ccnc(N2CCOCC2)c1` [Compound 1-10, N-(Indan-5-yl)-2-(2-morpholinopyridin-4-ylmethylthio)pyridine-3-carboxamide]: the inhibition at 20 µg/mL (stock) came out at 94%.

For `Cc1cc(C)cc(NC(=O)c2cccnc2SCc2ccnc(NC(=O)Nc3ccc(Cl)cc3)c2)c1` [Compound 5-3, 2-[2-(N′-4-Chlorophenylureido)pyridin-4-ylmethylthio]-N-(3,5-dimethylphenyl)pyridine-3-carboxamide], the inhibition at 20 µg/mL (stock) is 100%.

Turning to `Cc1cc(C)cc(NC(=O)c2cccnc2SCc2ccnc(N3CCCCC3)c2)c1` [Compound 1-5, N-(3,5-Dimethylphenyl)-2-[2-(piperidin-1-yl)pyridin-4-ylmethylthio]pyridine-3-carboxamide], the inhibition at 20 µg/mL (stock) amounted to 90%.

As to `CC(=O)Nc1cc(CSc2ccccc2C(=O)Nc2ccc(C(C)(C)C)cc2)ccn1` [Compound 4-44, 2-(2-Acetylaminopyridin-4-ylmethylthio)-N-(4-tert-butylphenyl)benzamide], the inhibition at 20 µg/mL (stock) came out at 85%.

For `Cc1cc(C)cc(NC(=O)c2cccnc2SCc2ccnc(N3CCN(C)CC3)c2)c1` [Compound 1-1, N-(3,5-Dimethylphenyl)-2-[2-(4-methylpiperazin-1-yl)pyridin-4-ylmethylthio]pyridine-3-carboxamide], the inhibition at 20 µg/mL (stock) stood at 97%.

With `CC(=O)Nc1cc(CSc2ncccc2C(=O)Nc2cc(C)c(O)c(C)c2)ccn1` [Compound 4-37, 2-(2-Acetylaminopyridin-4-ylmethylthio)-N-(3,5-dimethyl-4-hydroxyphenyl)pyridine-3-carboxamide], the inhibition at 20 µg/mL (stock) turned out to be 100%.

As to `CC(C)(C)c1ccc(NC(=O)c2cccnc2SCc2ccnc(N)c2)cc1` [Compound 3-4, 2-(2-Aminopyridin-4-ylmethylthio)-N-(4-tert-butylphenyl)pyridine-3-carboxamide monohydrochloride], the inhibition at 20 µg/mL (stock) came out at 100%.

Take `CC(C)(C)OC(=O)Nc1cc(CSc2ncccc2C(=O)Nc2ccc3c(c2)CCC3)ccn1` [Compound 2-3, 2-(2-tert-Butoxycarbonylaminopyridin-4-ylmethylthio)-N-(indan-5-yl)pyridine-3-carboxamide]: the inhibition at 20 µg/mL (stock) came to 100%.

Turning to `Cc1cc(C)cc(NC(=O)c2cccnc2SCc2ccnc(NC3CC3)c2)c1` [Compound 1-2, 2-(2-Cyclopropylaminopyridin-4-ylmethylthio)-N-(3,5-dimethylphenyl)pyridine-3-carboxamide], the inhibition at 20 µg/mL (stock) came to 100%.

With `Cc1cc(C)cc(NC(=O)c2cccnc2SCc2ccnc(NC(=O)C(F)(F)F)c2)c1` [Compound 4-3, N-(3,5-Dimethylphenyl)-2-(2-trifluoroacetylaminopyridin-4-ylmethylthio)pyridine-3-carboxamide], the inhibition at 20 µg/mL (stock) was 100%.

Take `CC(C)(C)OC(=O)Nc1cc(CSc2ncccc2C(=O)Nc2ccc(C(C)(C)C)cc2)ccn1` [Compound 2-5, 2-(2-tert-Butoxycarbonylaminopyridin-4-ylmethylthio)-N-(4-tert-butylphenyl)pyridine-3-carboxamide]: the inhibition at 20 µg/mL (stock) is 95%.

Turning to `Cc1cc(C)cc(NC(=O)c2cccnc2SCc2ccnc(N(C)CCN(C)C)c2)c1` [Compound 1-3, 2-[2-(N-(2-Dimethylaminoethyl)-N-methylamino)pyridin-4-ylmethylthio]-N-(3,5-dimethylphenyl)pyridine-3-carboxamide], the inhibition at 20 µg/mL (stock) stood at 99%.

Consider `Nc1cc(CSc2ncccc2C(=O)Nc2ccc(Cl)cc2)ccn1` [Compound 3-9, 2-(2-Aminopyridin-4-ylmethylthio)-N-(4-chlorophenyl)pyridine-3-carboxamide monohydrochloride], for which the inhibition at 20 µg/mL (stock) came to 100%.

For the compound `Cc1cc(C)cc(NC(=O)c2cccnc2SCc2ccnc(NC(=O)C(C)C)c2)c1` [Compound 4-4, N-(3,5-Dimethylphenyl)-2-(2-isobutyrylaminopyridin-4-ylmethylthio)pyridine-3-carboxamide], the inhibition at 20 µg/mL (stock) was found to be 100%.

Consider `CN(C)CCN(C)CC(=O)NC(Sc1ncccc1C(=O)Nc1ccc(OC(F)F)cc1)c1ccncc1` (stereo not shown) [Compound 17-50, N-(4-Difluoromethoxyphenyl)-2-[2-(N-(2-dimethylaminoethyl)-N-methylamino)acetylaminopyridin-4-ylmethylthio]pyridine-3-carboxamide], for which the inhibition at 20 µg/mL (stock) was 100%.

For `NCC(=O)Nc1cc(CSc2ncccc2C(=O)Nc2ccc(OC(F)F)cc2)ccn1` [Compound 18-1, 2-(2-Aminoacetylaminopyridin-4-ylmethylthio)-N-(4-difluoromethoxyphenyl)pyridine-3-carboxamide], the inhibition at 20 µg/mL (stock) was determined as 88%.

As for `Cc1cc(C)cc(NC(=O)c2cccnc2SCc2ccnc(NC(=O)OC(C)(C)C)c2)c1` [Compound 2-1, 2-(2-tert-Butoxycarbonylaminopyridin-4-ylmethylthio)-N-(3,5-dimethylphenyl)pyridine-3-carboxamide], the inhibition at 20 µg/mL (stock) is 100%.

As for `Nc1cc(CSc2ncccc2C(=O)Nc2cc3ccccc3cn2)ccn1` [Compound 3-13, 2-(2-Aminopyridin-4-ylmethylthio)-N-(isoquinolin-3-yl)pyridine-3-carboxamide], the inhibition at 20 µg/mL (stock) worked out at 100%.

On to `Cc1cc(C)cc(NC(=O)c2cccnc2SCc2ccnc(NC(=O)C(C)(C)C)c2)c1` [Compound 4-5, N-(3,5-Dimethylphenyl)-2-(2-pivaloylaminopyridin-4-ylmethylthio)pyridine-3-carboxamide], for which the inhibition at 20 µg/mL (stock) amounted to 100%.

In the case of `CN(C)CCN(C)CC(=O)NC(Sc1ncccc1C(=O)Nc1ccc(OC(F)(F)F)cc1)c1ccncc1` (stereo not shown) [Compound 17-28, 2-[2-(N-(2-Dimethylaminoethyl)-N-methylamino)acetylaminopyridin-4-ylmethylthio]-N-(4-trifluoromethoxyphenyl)pyridine-3-carboxamide], the inhibition at 20 µg/mL (stock) was determined as 100%.

Regarding `CNc1cc(CSc2ncccc2C(=O)Nc2ccc3c(c2)CCC3)ccn1` [Compound 3-7, N-(Indan-5-yl)-2-(2-methylaminopyridin-4-ylmethylthio)pyridine-3-carboxamide monohydrochloride], the inhibition at 20 µg/mL (stock) stood at 96%.

For the compound `Cc1cc(C)cc(NC(=O)c2cccnc2SCc2ccnc(NC=O)c2)c1` [Compound 6-1, N-(3,5-Dimethylphenyl)-2-(2-formylaminopyridin-4-ylmethylthio)pyridine-3-carboxamide], the inhibition at 20 µg/mL (stock) worked out at 100%.

Regarding `CC(C)(C)OC(=O)Nc1cc(CSc2ncccc2C(=O)Nc2ccc(OC(F)(F)F)cc2)ccn1` [Compound 2-4, 2-(2-tert-Butoxycarbonylaminopyridin-4-ylmethylthio)-N-(4-trifluoromethoxyphenyl)pyridine-3-carboxamide], the inhibition at 20 µg/mL (stock) worked out at 99%.

For `Nc1cc(CSc2ncccc2C(=O)Nc2ccc3cn[nH]c3c2)ccn1` [Compound 3-5, 2-(2-Aminopyridin-4-ylmethylthio)-N-(1H-indazol-6-yl)pyridine-3-carboxamide monohydrochloride], the inhibition at 20 µg/mL (stock) is 96%.
